Test results as given in US9309256B2, “Pharmaceutically active dimers linked through phenolic hydroxyl groups” (OrphoMed LLC, priority 2014, dated 2016).

Tests used:
IBS-D patients = settings: cited from earlier work
μ opioid receptor [1] = biological target: T1, μ opioid receptor (Homo sapiens, UniProt P35372); settings: briefing documents to FDA advisory committee; cited from earlier work
Target sequence in this assay (P35372 whole entry, species assumed): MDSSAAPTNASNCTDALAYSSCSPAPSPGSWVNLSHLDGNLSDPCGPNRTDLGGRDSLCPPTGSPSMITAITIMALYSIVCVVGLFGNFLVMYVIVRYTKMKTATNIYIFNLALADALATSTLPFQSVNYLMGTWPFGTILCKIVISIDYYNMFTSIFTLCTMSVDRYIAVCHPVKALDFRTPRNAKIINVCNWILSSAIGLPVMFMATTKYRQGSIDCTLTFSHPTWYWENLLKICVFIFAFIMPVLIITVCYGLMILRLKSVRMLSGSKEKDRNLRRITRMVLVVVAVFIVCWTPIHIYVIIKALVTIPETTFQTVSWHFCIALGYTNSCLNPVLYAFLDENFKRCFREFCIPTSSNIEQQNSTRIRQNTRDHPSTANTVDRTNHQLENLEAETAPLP

[2] = Stress stability assay of the buprenorphine dimer (tap water, acid, base, heat); type: physicochemical; settings: 1N HCl, 5% aqueous sodium bicarbonate, room temperature and 140° F., up to 30 minutes
Protocol: This study facilitated the understanding of the ease with which a potential abuser could cleave the dimer using household chemicals such as baking soda, acid or simple heating in water. Buprenorphine dimer stability was assessed at room temperature in untreated tap water and in presence of acid (1N HCl) or base (5% aqueous sodium bicarbonate).

[3] = biological target: T2, human δ subtype 2 opioid receptor (Homo sapiens, UniProt P41143); experiment: Human δ opioid receptor binding assay (tritiated naltrindole displacement)
T2 construct: purchased Perkin Elmer RBHODM400UA; host or cells: Chinese Hamster Ovary cells (membranes)
T2 sequence (P41143 whole entry): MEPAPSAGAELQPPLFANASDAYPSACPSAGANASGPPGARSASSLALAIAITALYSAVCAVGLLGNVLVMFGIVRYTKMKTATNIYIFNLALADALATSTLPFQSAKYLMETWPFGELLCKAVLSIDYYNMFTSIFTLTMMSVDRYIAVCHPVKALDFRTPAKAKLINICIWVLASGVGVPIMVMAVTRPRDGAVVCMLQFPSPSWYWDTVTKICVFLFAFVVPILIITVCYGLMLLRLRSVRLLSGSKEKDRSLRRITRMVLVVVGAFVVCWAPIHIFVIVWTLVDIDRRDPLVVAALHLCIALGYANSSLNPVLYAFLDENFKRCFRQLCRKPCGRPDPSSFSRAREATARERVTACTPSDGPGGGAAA
Protocol: The assay was designed to test the ability of a compound to interfere with the binding of tritiated naltrindole to the human δ subtype 2 opioid receptor. Membranes from Chinese Hamster Ovary cells expressing the human δ subtype 2 opioid receptor (Perkin Elmer #RBHODM400UA) were homogenized in assay buffer (50 mM Tris, pH 7.5 with 5 mM MgCl2) using a glass tissue grinder, Teflon pestle and Steadfast Stirrer (Fisher Scientific). The concentration of membranes was adjusted to 100 μg/mL in the assay plate, a 96 well round bottom polypropylene plate. Compounds to be tested were solubilized in DMSO, 10 mM, then diluted in assay buffer to 6× the desired final concentration. The ligand, ^3H-natrindole (Perkin Elmer #NET-1065) was also diluted in assay buffer to 6 nM. Aliquots of ^3H-natrindole (50 μL) were transferred to the assay plate containing the membranes in duplicate. The assay plate was incubated for 30 minutes at room temperature. A GF/C 96 well filter plate (Perkin Elmer #6005174) was pretreated with 0.3% polyethylenimine for 30 min. The contents of the assay plate were filtered through the filter plate using a Packard Filtermate Harvester, and washed 3 times with 0.9% saline at 4° C. The filter plate was dried, the underside sealed, and a 30 μL MictoS=scint 20 (Packard #6013621) was added to each well. A Topcount-NXT Microplate Scintillation Counter (Packard) was used to measure emitted energies in the range of 2.9 to 35 KeV. Results are compared to maximum binding, wells receiving no inhibitors. Nonspecific binding was determined in the presence of 1 μM unlabelled Natrindole. […] Relative to the μ and κ opioid receptors, the dimer has poor affinity for the δ receptor.

human μ receptors [4] = biological target: T3, human μ receptors (Homo sapiens, UniProt P35372); experiment: μ opioid receptor agonist functional assay: [35S]GTPγS binding in CHO-hMOR cell membranes; type: biochemical; settings: FIG. 11
T3 construct: purchased Receptor Biology Inc. (Baltimore Md.); host or cells: CHO-hMOR cell membranes
T3 sequence (P35372 whole entry): as the sequence (P35372 whole entry, species assumed) above
Protocol: (§1) This example illustrates the ability of the buprenorphine dimer provided herein to stimulate the p-opioid receptor-mediated signaling. Briefly, CHO-hMOR cell membranes were purchased from Receptor Biology Inc. (Baltimore Md.). About 10 mg/ml of membrane protein was suspended in 10 mM TRIS-HCl pH 7.2, 2 mM EDTA, 10% sucrose, and the suspension kept on ice. One mL of membranes was added to 15 mL cold binding assay buffer containing 50 mM HEPES, pH 7.6, 5 mM MgCl2, 100 mM NaCl, 1 mM DTT and 1 mM EDTA. The membrane suspension was homogenized with a polytron and centrifuged at 3000 rpm for 10 min. The supernatant was then centrifuged at 18,000 rpm for 20 min. The pellet was resuspended in 10 mL assay buffer with a polytron. […]
(§2) The buprenorphine dimer was tested for function as an antagonist by evaluating its potential to inhibit agonist-stimulated GTPγS binding using D-Phe-Cys-Tyr-D-Trp-Orn-Thr-Pen-Thr-NH2 (CTOP) as the standard. Radioactivity was quantified on a Packard Top Count. The following parameters are calculated: % Stimulation=[(test compound cpm−non-specific cpm)/(basal cpm−non-specific cpm)]*100 % Inhibition=(% stimulation by 1 μM SNC80−% stimulation by 1 μM SNC80 in presence of test compound)*100/(% stimulation by 1 μM SNC80−100).
(§3) EC50 was calculated using GraphPad Prism.

human μ receptors [5] = biological target: T3, human μ receptors; experiment: μ opioid receptor antagonist functional assay: [35S]GTPγS binding in CHO-hMOR cell membranes; type: biochemical; settings: inhibition of agonist-stimulated GTPγS binding, FIG. 12
Protocol: as §1, §2, §3

[6] = In vivo pharmacokinetic study, oral and IV; settings: CD-1 mice, 10 mg/kg IV and oral gavage
Protocol: Animals used in these animal pharmacokinetic studies were CD-1 mice (about 35 gms, n=3 per time point). Drugs tested were buprenorphine and the buprenorphine dimer. Dose 10 mg/kg IV and oral gavage. Blood was collected at time 0, 30 min and 1, 2, 6 and 24 hours. Blood samples for the drug were analyzed after harvesting the plasma and by LC/MS/MS as follows:
Standard curve was prepared in mouse plasma spiked with either the test drugs (10-25000 nM). Plasma samples (50 μL) were extracted in 300 μL acetonitrile containing losartan or buprenorphine-d4 as internal standard. Extracts were centrifuged at 16000×g at 4° C. for 5 minutes. Supernatants (250 μL) were transferred to a new tube and dried under N2 at 45° C. for 1 hour. Samples were reconstituted with 100 μL of 30% acetonitrile, vortexed and centrifuged. Supernatants (90 μL) were transferred to LC vials and 10 μL is injected on LC/MS.

male CD-1 mice [7] = experiment: Stress-induced fecal output; type: in vivo
Source text: The animals used in the studies were male CD-1 mice, average weight about 30 to 35 g, with an average of 5 mice per dose group. The mice were generally housed in colony housing where they are housed 3 per cage in polycarbonate cages with access to food and water ad lib.
On the day of the experiment the mice were transported to the procedure room where they were individually housed in 20 cm wide×20 cm deep×15 cm tall cages, equipped with a wire mesh bottom after intragastric administration of test compounds. During the test the animals were allowed access to water only ad lib. The wire mesh bottomed tall cage creates a novel environment which induces stress in mice. The number of pellets excreted was determined on an hourly basis.

male CD-1 mice [8] = experiment: Effect on post-inflammatory altered GI transit time (mustard oil); type: in vivo; settings: 25 mg per kg oral, mustard oil treated mice
Protocol: This test was designed to measure the effect of test substance on gastrointestinal hypersensitivity following inflammation. Post-inflammatory altered GI transit was induced in male CD-1 mice by injecting freshly opened oil of mustard (95% pure allyl isothiocyanate, 0.5% in ethanol). The effect of stress on the post-inflammatory GI tract was tested 3-4 weeks after dosing. […] The effect of the test substance was measured after oral administration (intragastric gavage) and subjecting animals to environmental stress by housing them in cages (20 cm wide×20 cm deep×15 cm tall), equipped with a wire mesh bottom. During the test the animals were allowed access to water ad lib. The wire mesh bottomed tall cage creates a novel environment which induces stress in mice. The number of pellets excreted is determined on hourly to two-hourly basis.

human liver microsomes [9] = experiment: Metabolic stability of buprenorphine dimer in human liver microsomes; settings: 1 μM, human liver microsomes 1 mg protein/mL, 37 °C, with or without NADPH co-factor, up to 2 hours
Protocol: Incubations of the dimer (e.g., 1 μM) with human liver microsomes (e.g., 1 mg protein/mL) were carried out using a Tecan Liquid Handling System (Tecan), or equivalent, at 37±1° C. in 0.2-mL incubation mixtures (final volume) containing potassium phosphate buffer (50 mM, pH 7.4), MgCl2 (3 mM) and EDTA (1 mM, pH 7.4) with and without a cofactor, NADPH-generating system, at the final concentrations indicated in a 96-well plate format. The NADPH-generating system consisted of NADP (1 mM, pH 7.4), glucose-6-phosphate (5 mM, pH 7.4) and glucose-6-phosphate dehydrogenase (1 Unit/mL). The buprenorphine dimer was dissolved in aqueous methanolic solution (methanol 0.5% v/v, or less). […] Zero-time incubations served as 100% value to determine percent loss of substrate. […] The samples were subjected to centrifugation (e.g., 920×g for 10 min at 10° C.) and the supernatant fractions analyzed by LC-MS/MS. […]
The above samples were analyzed by an LC-MS/MS method. […] Results were determined by a comparison of peak ratios over the time course of the experiment (typically reported as “% Parent Remaining”).
Data were calculated with a LIMS (includes Galileo, Thermo Fisher Scientific Inc. and reporting tool, Crystal Reports, SAP), the spreadsheet computer program Microsoft Excel (Microsoft Corp.) or equivalent. […]

μ opioid receptor [10] = biological target: T1, μ opioid receptor; experiment: Human μ opioid receptor binding assay (3H-Naloxone displacement); parameters: purchased Perkin Elmer RBHOMM400UA; host or cells: Chinese Hamster Ovary cells (membranes); settings: FIG. 9
Target sequence in this assay (P35372 whole entry): as the sequence (P35372 whole entry, species assumed) above
Protocol: Membranes from Chinese Hamster Ovary cells expressing the human μ opioid receptor (Perkin Elmer #RBHOMM400UA) were homogenized in assay buffer (50 mM Tris, pH 7.5 with 5 mM MgCl2) using glass tissue grinder, Teflon pestle and Steadfast Stirrer (Fisher Scientific). The concentrates of the membranes were adjusted to 300 μg/mL in assay plate, a 96 well round bottom polypropylene plate. […] From the premix plate 50 μL was transferred to the assay plate containing the membranes, in duplicate. The assay plate was incubated for 2 h at room temperature. […] The contents of the assay plate were filtered through the filter plate using a Packard Filtermate Harvester, and washed 3 times with 0.9% saline at 4° C. […] A Topcount-NXT Microplate Scintillation Counter (Packard) was used to measure emitted energies in the range of 2.9 to 35 KeV. Results were compared to maximum binding, wells receiving no inhibitions.

mice = settings: mildly stressed mice
Source text: In the study a group mice were subjected to mild stress, which normally induces diarrhea and gastrointestinal motility measured by number of fecal pellets excreted per hour.

human liver microsomes [11] = settings: approximately 1 μM, human liver microsomes 1 mg protein/ml, up to 1 hour
Protocol: Incubations of the dimer (e.g., 1 μM) with human liver microsomes (e.g., 1 mg protein/mL) were carried out using a Tecan Liquid Handling System (Tecan), or equivalent, at 37±1° C. in 0.2-mL incubation mixtures (final volume) containing potassium phosphate buffer (50 mM, pH 7.4), MgCl2 (3 mM) and EDTA (1 mM, pH 7.4) with and without a cofactor, NADPH-generating system, at the final concentrations indicated in a 96-well plate format. The NADPH-generating system consisted of NADP (1 mM, pH 7.4), glucose-6-phosphate (5 mM, pH 7.4) and glucose-6-phosphate dehydrogenase (1 Unit/mL). […] Zero-time incubations served as 100% value to determine percent loss of substrate. Incubations were carried out in triplicate with an exception for zero-time samples (which were incubated in quadruplicate). Zero-cofactor (no NADPH) incubations were performed at zero-time and the longest time point. The samples were subjected to centrifugation (e.g., 920×g for 10 min at 10° C.) and the supernatant fractions analyzed by LC-MS/MS. Additional incubations were carried out with microsomes and a marker substrate (e.g., dextromethorphan to monitor substrate loss) as a positive control to determine if the test system was metabolically competent.
The incubation medium was assayed by LC/MS/MS for the formation of naloxone over time.

[12] = room temperature, tap water, 1N HCl or 5% aqueous sodium bicarbonate

COc1ccc(CN(C(=O)[C@@H](N)Cc2c(C)cc(C(N)=O)cc2C)[C@@H](C)c2ncc(-c3ccccc3)[nH]2)cc1C(=O)O [Eluxadoline]
pancreatitis cases (IBS-D patients; Phase II trials): several cases of pancreatitis
Phase III efficacy endpoints (IBS-D patients; Phase III testing, IBS-D): met primary endpoints of improvement in stool consistency and reduction of abdominal pain

C[N@+]1(CC2CC2)CC[C@]23c4c5ccc(O)c4O[C@H]2C(=O)CC[C@@]3(O)[C@H]1C5 [Methylnaltrexone Bromide]
Ki (μ opioid receptor [1]): 42 nM

CO[C@]12CC[C@@]3(C[C@@H]1[C@](C)(O)C(C)(C)C)[C@H]1Cc4ccc(OCCOc5ccc6c7c5O[C@H]5[C@@]8(OC)CC[C@@]9(C[C@@H]8[C@](C)(O)C(C)(C)C)[C@@H](C6)N(CC6CC6)CC[C@]759)c5c4[C@@]3(CCN1CC1CC1)[C@H]2O5 [buprenorphine dimer]
stability / degradation to buprenorphine [2]: remained stable and did not degrade to release buprenorphine
IC50 [3]: 7.6 nM
Ki [3]: 2.87 nM
affinity for the δ receptor relative to the μ and κ opioid receptors [3]: poor affinity
μ agonist function (human μ receptors [4]): potent μ agonist
μ antagonist function (human μ receptors [5]): does not function as a μ-antagonist
absolute bioavailability (ratio of the area under the concentration curve after oral and IV dose) [6]: ≤ 1%
dose dependence of fecal output (male CD-1 mice [7]; FIG. 15): decreases with dose
fecal output versus placebo (vehicle) (male CD-1 mice [7]; oral, 25 and 50 mg per kg, stressed male CD-1 mice): significantly reduced the fecal output
gastrointestinal motility as measured by fecal output (male CD-1 mice [8]): significantly decreases gastrointestinal motility
gastrointestinal motility as measured by fecal output at 2 hours (male CD-1 mice [8]; 2 hours): continues to inhibit gastrointestinal motility with statistically significant results
stability in presence of microsomal enzymes (% Parent Remaining) (human liver microsomes [9]): relatively stable
affinity for the opioid μ receptor (μ opioid receptor [10]): significant affinity

CO[C@]12CC[C@@]3(C[C@@H]1[C@](C)(O)C(C)(C)C)[C@H]1Cc4ccc(O)c5c4[C@@]3(CCN1CC1CC1)[C@H]2O5 [buprenorphine, Buprenorphine, reference compound]
absolute bioavailability (ratio of the area under the concentration curve after oral and IV dose) [6]: about 30%

CN(C)C(=O)C(CCN1CCC(O)(c2ccc(Cl)cc2)CC1)(c1ccccc1)c1ccccc1 [loperamide, reference compound]
number of pellets expelled versus control (vehicle) animals (mice): significantly less

C=CCN1CC[C@]23c4c5ccc(OCCOc6ccc7c8c6O[C@H]6C(=O)CC[C@@]9(O)[C@@H](C7)N(CC=C)CC[C@]869)c4O[C@H]2C(=O)CC[C@@]3(O)[C@H]1C5 [naloxone dimer]
formation of naloxone over time (human liver microsomes [11]): no evidence of formation naloxone over time
stability / degradation to naloxone [12]: does not appreciably degrade to naloxone
reversal of loperamide-induced constipation (fecal pellets excreted per hour) (mice; comparable to control by hour 3 or later): reversed the constipating effects
